The target of one test is human GPR120 (Homo sapiens (Human), UniProt Q5NUL3). The test can be described thus: GPR120 pERK AlphaScreen SureFire Assay (human GPR120 pERK assay). In kind it is cell-based. Particulars: CHOA12 or CHO-K1 cells stably transfected with the short form of human GPR120 receptor; phosphorylated ERK; read-out: EC50 values measured in the human GPR120 pERK assay. The procedure, abridged:
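CHO cells (CHOA12 or CHO-K1) stably expressing short-form human GPR120 were serum-starved for 2 h, then exposed to compound for 7 min at 37 °C over an 11-point range of 33.33 μM–0.56 nM final. ERK phosphorylation was read by AlphaScreen SureFire and normalised to DMSO and to 50 μM linolenic acid. EC50 was derived from a 4-parameter logistic fit.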
In general terms: In Alpha technology, singlet oxygen from a donor bead excites a nearby acceptor bead.

A further test relates to C57BL/6 mice. The experiment in a line: Acute Oral Glucose Tolerance Test. Particulars: oral glucose tolerance test in mice at dose of 30 mg/kg; AUC t=0-120 min compared to vehicle. In kind it is in vivo. The procedure: In Vivo GPR120 Assays 1) Acute Oral Glucose Tolerance Test
C57BL/6 mice were housed individually and fed a standard rodent chow diet. At approximately 11 weeks age, after a 5 h fast, these mice were orally treated with vehicle or test compounds 60 min before a glucose challenge (2 g/kg). Blood glucose levels were determined from tail bleeds taken at −60, 0, 15, 30, 60 and 120 min after the glucose challenge. The blood glucose excursion profile from t=0-120 min was used to calculate an area under the curve (AUC) for compound treatment. This AUC for compound treatment is compared to vehicle treatment.

Chain of human GPR120 (Q5NUL3 whole entry): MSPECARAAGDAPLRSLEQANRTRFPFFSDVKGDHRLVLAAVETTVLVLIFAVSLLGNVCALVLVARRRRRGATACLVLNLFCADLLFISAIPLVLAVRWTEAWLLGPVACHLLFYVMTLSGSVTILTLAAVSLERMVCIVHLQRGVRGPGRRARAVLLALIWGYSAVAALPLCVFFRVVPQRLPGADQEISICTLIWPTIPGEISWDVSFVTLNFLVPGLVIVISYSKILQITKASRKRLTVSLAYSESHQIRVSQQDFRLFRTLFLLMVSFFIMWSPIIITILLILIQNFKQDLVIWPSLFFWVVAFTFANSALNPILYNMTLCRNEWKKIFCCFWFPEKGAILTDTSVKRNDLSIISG

For `O=C(O)COCC12CCC(OCc3cc(F)cc(Oc4ccccc4)c3)(CC1)C2` [Example 73, 2-((4-(3-fluoro-5-phenoxybenzyloxy)bicyclo [2.2.1]heptan-1-yl)methoxy) acetic acid], the EC50 (usually the concentration that produces a half-maximal response) on human GPR120 turned out to be 1.62 µM. In the test on C57BL/6 mice, the “reduced glucose AUC levels” value is on record as 21%.
Regarding `O=C(O)[C@H]1C[C@@H]1CC12CCC(OCc3cc(F)cc(Oc4ccccc4)c3)(CC1)C2` (single isomer, unassigned) [Example 92], the EC50 on human GPR120 was 0.6 µM. Also, the “reduced glucose AUC levels” value in the test with C57BL/6 mice was 25%.
With `O=C(O)CCCC12CCC(OCc3ccccc3C(F)(F)F)(CC1)C2` [Example 64, 4-(4-(2-(trifluoro-methyl)benzyloxy)bicyclo[2.2.1]heptan-1-yl) butanoic acid], the EC50 on human GPR120 was 1.51 µM.
The same measure, in the same setting: for `CC(C)Oc1ccc(Cl)cc1COC12CCC(CCCC(=O)O)(CC1)C2` [Example 5, 4-(4-(5-chloro-2-isopropoxy-benzyloxy)bicyclo[2.2.1]heptan-1-yl) butanoic acid] the value was 1.02 µM.
On to `O=C(O)CCC12CCC(OCCc3cc(OC(F)(F)F)ccc3F)(CC1)C2` [Example 89, 3-((1S,4R)-4-(2-fluoro-5-(trifluoromethoxy)phenethoxy)bicyclo [2.2.1]heptan-1-yl) propanoic acid], for which the concentration for a half-maximal effect (EC50) on human GPR120 was 2.64 µM.
On to `CC(OC12CCC(CCCC(=O)O)(CC1)C2)c1cccc(C(F)(F)F)c1` (centres unmarked) [Example 8, 4-(4-(1-(3-(trifluoromethyl)phenyl)ethoxy)bicyclo[2.2.1]heptan-1-yl) butanoic acid], for which the EC50 on human GPR120 turned out to be 2.34 µM.
The same measure, in the same setting: in the case of `O=C(O)CCCC12CCC(OCc3cccc(C(F)(F)F)c3Cl)(CC1)C2` [Example 55, 4-(4-(2-chloro-3-(trifluoromethyl)benzyloxy) [2.2.1]heptan-1-yl)butanoic acid] it was 0.17 µM; in that of “4-(4-(3-chloro-5- phenoxybenzyl- oxy)bicyclo [2.2.1]heptan- 1-yl)benzoic acid [Example 6]”, 0.45 µM; in that of “3-(4-(3-fluoro-5-(4- fluorophenoxy)benzyloxy) bicyclo[2.2.1]heptan-1-yloxy) propanoic acid [Example 81]”, 0.35 µM.
The same measure, in the same setting: in the case of `O=C(O)CCCC12CCC(OCc3cccc(OC(F)(F)F)c3)(CC1)C2` [Example 26, 4-(4-(3-(trifluoro-methoxy)benzyl-oxy)bicyclo[2.2.1]heptan-1-yl) butanoic acid] it was 0.62 µM.
Same read-out and setting: for `O=C(O)COCC12CCC(OCc3cc(Cl)cc(OC(F)(F)F)c3)(CC1)C2` [Example 78, 2-((4-((3-chloro-5-(trifluoromethoxy)benzyl)oxy)bicyclo[2.2.1]heptan-1-yl)methoxy)acetic acid] the value was 0.94 µM.
With `CC(OC12CCC(COCC(=O)O)(CC1)C2)c1cc(F)cc(Oc2ccc(F)cc2)c1` (centres unmarked) [Example 76, 2-((4-(1-(3-fluoro-5-(4-fluorophenoxy)phenyl)ethoxy)bicyclo[2.2.1]heptan-1-yl)methoxy)acetic acid], the EC50 on human GPR120 was 3.04 µM.
The same measure, in the same setting: for `O=C(O)CCCC12CCC(OCc3ccccc3-c3ccccc3)(CC1)C2` [Example 48, 4-(4-(biphenyl-2-ylmethoxy)bicyclo[2.2.1]heptan-1-yl) butanoic acid] the value was 0.32 µM.
Still for that read-out and setting: in the case of `CS(=O)(=O)NC(=O)CCCC12CCC(OCc3cc(F)ccc3Oc3ccccc3)(CC1)C2` [Example 83, 4-(4-(5-Fluoro-2-phenoxybenzyloxy)bicyclo[2.2.1]heptan-1-yl)-N-(methylsulfonyl) butanamide] it was 0.4 µM; in that of `Cc1cc(COC23CCC(CCCC(=O)O)(CC2)C3)ccc1F` [Example 13, 4-(4-(4-fluoro-3-methylbenzyl-oxy)bicyclo [2.2.1]heptan-1-yl)butanoic acid], 7.67 µM.
Still for that read-out and setting: for `O=C(O)CCCC12CCC(OCc3ccc(Oc4ccccc4)cc3)(CC1)C2` [Example 58, 4-(4-(4-phenoxy-benzyloxy)bicyclo[2.2.1]heptan-1-yl) butanoic acid] the value was 1.72 µM.
On to `O=C(O)CCCC12CCC(OCc3cc(F)cc(Cl)c3)(CC1)C2` [Example 22, 4-(4-(3-chloro-5-fluorobenzyl-oxy)bicyclo [2.2.1]heptan-1-yl)butanoic acid], for which the EC50 at human GPR120 stood at 0.73 µM.
Same read-out and setting: in the case of `O=C(O)CCCC12CCC(OCc3cccc(Oc4ccc(Cl)cc4)c3)(CC1)C2` [Example 32, 4-(4-(3-(4-chlorophenoxy)benzyloxy)bicyclo [2.2.1]heptan-1-yl) butanoic acid] it was 0.59 µM; in that of `COc1cc(Cl)ccc1COC12CCC(CCCC(=O)O)(CC1)C2` [Example 40, 4-(4-(4-chloro-2-methoxybenzyl-oxy)bicyclo [2.2.1]heptan-1-yl)butanoic acid], 2.3 µM.
The same measure, in the same setting: for `CC(C)Oc1cc(F)cc(COC23CCC(CCCC(=O)O)(CC2)C3)c1` [Example 35, 4-(4-(3-fluoro-5-isopropoxybenzyl-oxy)bicyclo [2.2.1]heptan-1-yl)butanoic acid] the value was 0.44 µM; for `O=C(O)COCCC12CCC(OCc3cc(F)cc(Oc4ccccc4)c3)(CC1)C2` [Example 100, 2-(2-(4-((3-Fluoro-5-phenoxybenzyl)oxy)bicyclo[2.2.1]heptan-1-yl)ethoxy)acetic acid], 0.57 µM.

The values above are taken from patent US9518000B2, “Bicyclo [2.2.1] acid GPR120 modulators” (BRISTOL-MYERS SQUIBB COMPANY, priority 2013, dated 2016).
